In assay [1] the test system is Beet Armyworm (Spodoptera exigua, LAPHEG). The assay can be described thus: Bioassays on Beet Armyworm (BAW), 128-well diet tray assay. The class given is in vivo. Conditions: Spodoptera exigua; for mortality at 50 µg/cm2: 168 h, second instar larvae, 50 μg/cm^2 of test molecule on artificial diet, 25° C., five to seven days, average of eight wells, read-out: BAW % Control (or Mortality) rating. The method, then: (§1) Certain molecules disclosed in this document were tested against BAW and CL using procedures described in the following examples. In the reporting of the results, the “BAW & CL Rating Table” was used (See Table Section).
Bioassays on BAW were conducted using a 128-well diet tray assay. One to five second instar BAW larvae were placed in each well (3 mL) of the diet tray that had been previously filled with 1 mL of artificial diet to which 50 μg/cm^2 of the test molecule (dissolved in 50 μL of 90:10 acetone-water mixture) had been applied (to each of eight wells) and then allowed to dry. Trays were covered with a clear self-adhesive cover, vented to allow gas exchange, and held at 25° C., 14:10 light-dark for five to seven days. Percent mortality was recorded for the larvae in each well; activity in the eight wells was then averaged. The results are indicated in the table entitled “Table ABC: Biological Results” (See Table Section).

Assay [2] has as its system Cabbage Looper (Trichoplusia ni, TRIPNI). The assay can be described thus: Bioassays on Cabbage Looper (CL), 128-well diet tray assay. Particulars: Trichoplusia ni; for mortality at 50 µg/cm2: 168 h, second instar larvae, 50 μg/cm^2 of test molecule on artificial diet, 25° C., five to seven days, average of eight wells, read-out: CL % Control (or Mortality) rating. It counts as in vivo. The method, then: as §1
Bioassays on CL were conducted using a 128-well diet tray assay. One to five second instar CL larvae were placed in each well (3 mL) of the diet tray that had been previously filled with 1 mL of artificial diet to which 50 μg/cm^2 of the test molecule (dissolved in 50 μL of 90:10 acetone-water mixture) had been applied (to each of eight wells) and then allowed to dry. Trays were covered with a clear self-adhesive cover, vented to allow gas exchange, and held at 25° C., 14:10 light-dark for five to seven days. Percent mortality was recorded for the larvae in each well; activity in the eight wells was then averaged. The results are indicated in the table entitled “Table ABC: Biological Results” (See Table Section).

Where [3] appears, read: Table ABC: Biological Results, species BAW, read-out: BAW.
The mark [4] stands for this setting: Table ABC: Biological Results, species CL, read-out: CL.
[5] abbreviates: Beet Armyworm, rating class, read-out: BAW.
Where [6] appears, read: Cabbage Looper, rating class, read-out: CL.
[7] abbreviates: Beet Armyworm, Table ABC / ABC-DP rating, read-out: BAW rating.
[8] abbreviates: Cabbage Looper, Table ABC / ABC-DP rating, read-out: CL rating.

Where two headings read alike, the source gives them in different places.

As for `Nc1ccc(F)c(NC(=O)c2cc(NC(=O)[C@H]3[C@H](c4ccc(Cl)c(Cl)c4)C3(Cl)Cl)cc(F)c2Cl)c1F` [F1338, N-(3-Amino-2,6-difluorophenyl)-2-chloro-5-((1R,3R)-2,2-dichloro-3-(3,4-dichlorophenyl)cyclopropane-1-carboxamido)-3-fluorobenzamide], the pest or weed control at 50 µg/cm2 in assay [1] (setting [3]) and in assay [2] (setting [4]) was 50 to 100% each time.

With `Cc1cc(NC(=O)[C@H]2[C@H](c3ccc(F)c(C(F)(F)F)c3)C2(Cl)Cl)cc(C(=O)Nc2c(F)ccc(N)c2F)c1Cl` [F1428, N-(3-Amino-2,6-difluorophenyl)-2-chloro-5-((1R,3R)-2,2-dichloro-3-(4-fluoro-3-(trifluoromethyl)phenyl)cyclopropane-1-carboxamido)-3-methylbenzamide], the pest or weed control at 50 µg/cm2 in assay [1] (setting [5]) and in assay [2] (setting [6]) was 50 to 100% throughout.

With `CC(C)(C)OC(=O)Nc1c(F)ccc(NC(=O)c2cc(NC(=O)[C@H]3[C@H](c4ccc(Br)c(C(F)(F)F)c4)C3(Cl)Cl)ccc2Cl)c1F` (relative stereo) [F1115, trans-tert-Butyl-(3-(5-(3-(4-bromo-3-(trifluoromethyl)phenyl)-2,2-dichlorocyclopropane-1-carboxamido)-2-chlorobenzamido)-2,6-difluorophenyl)carbamate], the pest or weed control at 50 µg/cm2 in assay [1] (setting [3]) and in assay [2] (setting [4]) was 50 to 100% each time.

Consider `O=C(Nc1ccc(F)c(NS(=O)(=O)CC2CC2(Cl)Cl)c1F)c1cc(NC(=O)[C@H]2[C@H](c3ccc(F)c(C(F)(F)F)c3)C2(Cl)Cl)ccc1Cl` (stereo partly drawn) [F1361, 2-Chloro-5-((1R,3R)-2,2-dichloro-3-(4-fluoro-3-(trifluoromethyl)phenyl)cyclopropane-1-carboxamido)-N-(3-(((2,2-dichlorocyclopropyl)methyl)sulfonamido)-2,4-difluorophenyl)benzamide], for which the pest or weed control at 50 µg/cm2 in assay [1] (setting [3]) and in assay [2] (setting [4]) was 50 to 100% throughout.

Broadly, the mortality is the percentage killed. Turning to `O=C(NNCc1ccc(F)cc1)c1cc(NC(=O)[C@H]2[C@H](c3cc(Cl)cc(Cl)c3)C2(Cl)Cl)ccc1Cl` (relative stereo) [F2570, trans-2,2-dichloro-N-(4-chloro-3-(2-(4-fluorobenzyl)hydrazine-1-carbonyl)phenyl)-3-(3,5-dichlorophenyl)cyclopropane-1-carboxamide], the mortality at 50 µg/cm2 in assay [1] and in assay [2] was 50 to 100% in each case. Moreover, the pest or weed control at 50 µg/cm2 in assay [1] (setting [7]) and in assay [2] (setting [8]) was 50 to 100% each time.

On to `O=C(Nc1c(F)ccc(NC(=O)C(F)(F)Br)c1F)c1cc(NC(=O)[C@H]2[C@H](c3ccc(F)c(C(F)(F)F)c3)C2(Cl)Cl)cc(F)c1Cl` [F1356, N-(3-(2-Bromo-2,2-difluoroacetamido)-2,6-difluorophenyl)-2-chloro-5-((1R,3R)-2,2-dichloro-3-(4-fluoro-3-(trifluoromethyl)phenyl)cyclopropane-1-carboxamido)-3-fluorobenzamide], for which the pest or weed control at 50 µg/cm2 in assay [1] (setting [3]) and in assay [2] (setting [4]) was 50 to 100% in each case.

With `O=C(Nc1cc(NC(=O)C(F)(F)F)c(F)cc1F)c1cc(NC(=O)[C@H]2[C@H](c3ccc(Cl)c(Cl)c3)C2(Cl)Cl)cc(F)c1Cl` [F1403, 2-Chloro-5-((1R,3R)-2,2-dichloro-3-(3,4-dichlorophenyl)cyclopropane-1-carboxamido)-N-(2,4-difluoro-5-(2,2,2-trifluoroacetamido)phenyl)-3-fluorobenzamide], the pest or weed control at 50 µg/cm2 in assay [1] (setting [5]) and in assay [2] (setting [6]) was 50 to 100% each time.

On to `O=C(NNc1ccccc1C(F)(F)F)c1cc(NC(=O)[C@H]2[C@H](c3cc(Cl)cc(Cl)c3)C2(Cl)Cl)ccc1Cl` (relative stereo) [F2573, trans-2,2-Dichloro-N-(4-chloro-3-(2-(2-(trifluoromethyl)phenyl)hydrazine-1-carbonyl)phenyl)-3-(3,5-dichlorophenyl)cyclopropane-1-carboxamide], for which the mortality at 50 µg/cm2 in assay [1] and in assay [2] was 50 to 100% throughout. Also, the pest or weed control at 50 µg/cm2 in assay [1] (setting [7]) and in assay [2] (setting [8]) was 50 to 100% throughout.

For `Cc1cc(NCCc2ccccc2)ccc1NC(=O)c1cc(NC(=O)[C@H]2[C@H](c3cc(Cl)cc(Cl)c3)C2(Cl)Cl)ccc1Cl` (relative stereo) [F1177, trans-2-Chloro-5-(2,2-dichloro-3-(3,5-dichlorophenyl)cyclopropane-1-carboxamido)-N-(2-methyl-4-(phenethylamino)phenyl)benzamide], the pest or weed control at 50 µg/cm2 in assay [1] (setting [3]) and in assay [2] (setting [4]) was 50 to 100% in each case.

`O=C(CC(=O)C(F)(F)F)Nc1c(F)ccc(NC(=O)c2cc(NC(=O)[C@H]3[C@H](c4ccc(F)c(C(F)(F)F)c4)C3(Cl)Cl)ccc2Cl)c1F` [F1840, 2-Chloro-5-((1R,3R)-2,2-dichloro-3-(4-fluoro-3-(trifluoromethyl)phenyl)cyclopropane-1-carboxamido)-N-(2,4-difluoro-3-(4,4,4-trifluoro-3-oxobutanamido)phenyl)benzamide]: the pest or weed control at 50 µg/cm2 in assay [1] (setting [7]) and in assay [2] (setting [8]) was 50 to 100% each time.

In the case of `Cc1cc(NC(=O)[C@H]2[C@H](c3ccc(Cl)c(Cl)c3)C2(Cl)Cl)cc(C(=O)Nc2cc(NC(=O)C(F)(F)F)c(F)cc2F)c1Cl` [F1497, 2-Chloro-5-((1R,3R)-2,2-dichloro-3-(3,4-dichlorophenyl)cyclopropane-1-carboxamido)-N-(2,4-difluoro-5-(2,2,2-trifluoroacetamido)phenyl)-3-methylbenzamide], the pest or weed control at 50 µg/cm2 in assay [1] (setting [5]) and in assay [2] (setting [6]) was 50 to 100% throughout.

For the compound `C#CCCC(=O)Nc1c(F)ccc(NC(=O)c2cc(NC(=O)[C@H]3[C@H](c4ccc(F)c(C(F)(F)F)c4)C3(Cl)Cl)ccc2Cl)c1F` [F1855], the pest or weed control at 50 µg/cm2 in assay [1] (setting [7]) and in assay [2] (setting [8]) was 50 to 100% throughout.

For `Cc1ccc(C(=O)Nc2c(F)ccc(NC(=O)c3cc(NC(=O)[C@H]4[C@H](c5ccc(F)c(C(F)(F)F)c5)C4(Cl)Cl)ccc3Cl)c2F)s1` [F1302, N-(3-(2-Chloro-5-((1R,3R)-2,2-dichloro-3-(4-fluoro-3-(trifluoromethyl)phenyl)cyclopropane-1-carboxamido)benzamido)-2,6-difluorophenyl)-5-methylthiophene-2-carboxamide], the pest or weed control at 50 µg/cm2 in assay [1] (setting [3]) and in assay [2] (setting [4]) was 50 to 100% throughout.

Regarding `Cc1cc(NC(=O)[C@H]2[C@H](c3ccc(F)c(C(F)(F)F)c3)C2(Cl)Cl)cc(C(=O)Nc2ccc(F)c(NC(=O)C(F)(F)F)c2F)c1Cl` [F1495, 2-Chloro-5-((1R,3R)-2,2-dichloro-3-(4-fluoro-3-(trifluoromethyl)phenyl)cyclopropane-1-carboxamido)-N-(2,4-difluoro-3-(2,2,2-trifluoroacetamido)phenyl)-3-methylbenzamide], the pest or weed control at 50 µg/cm2 in assay [1] (setting [5]) and in assay [2] (setting [6]) was 50 to 100% throughout.

As for `COc1c(Cl)cc(NC(=O)[C@H]2[C@H](c3ccc(F)c(Cl)c3)C2(Cl)Cl)cc1C(=O)NCC(F)(F)C(F)(F)F` (relative stereo) [F2062, trans-3-Chloro-5-(2,2-dichloro-3-(3-chloro-4-fluorophenyl)cyclopropane-1-carboxamido)-2-methoxy-N-(2,2,3,3,3-pentafluoropropyl)benzamide], the pest or weed control at 50 µg/cm2 in assay [1] (setting [7]) and in assay [2] (setting [8]) was 50 to 100% in each case.

Take `CC(=O)Nc1cc(NC(=O)c2cc(NC(=O)[C@H]3[C@H](c4cc(Cl)cc(Cl)c4)C3(Cl)Cl)ccc2Cl)ccc1F` (relative stereo) [F1638, trans-N-(3-Acetamido-4-fluorophenyl)-2-chloro-5-(2,2-dichloro-3-(3,5-dichlorophenyl)cyclopropane-1-carboxamido)benzamide]: the pest or weed control at 50 µg/cm2 in assay [1] (setting [5]) and in assay [2] (setting [6]) was 50 to 100% in each case.

On to `O=C(Nc1ccc(F)c(NC(=O)C(F)(F)F)c1F)c1cc(NC(=O)[C@H]2[C@H](c3cc(Cl)c(Cl)c(Cl)c3)C2(Cl)Cl)cc(F)c1Cl` [F1334, 2-Chloro-5-((1R,3R)-2,2-dichloro-3-(3,4,5-trichlorophenyl)cyclopropane-1-carboxamido)-N-(2,4-difluoro-3-(2,2,2-trifluoroacetamido)phenyl)-3-fluorobenzamide], for which the pest or weed control at 50 µg/cm2 in assay [1] (setting [3]) and in assay [2] (setting [4]) was 50 to 100% throughout.

Source of the values: patent publication US20250228239A1, “MOLECULES HAVING PESTICIDAL UTILITY, AND INTERMEDIATES, COMPOSITIONS, AND PROCESSES, RELATED THERETO” (priority 2024, published 2025).
